We go through 28 compounds from patent publication US12685733B2, “Indole molecules and use thereof in the inhibition of DNA polymerases” (BioVentures, LLC, priority 2019, dated 2026).

SMILES strings stand for the structures.

This assay concerns the target T1, hpol κ (Homo sapiens, UniProt Q9UBT6).
T1 sequence (Q9UBT6 19-526): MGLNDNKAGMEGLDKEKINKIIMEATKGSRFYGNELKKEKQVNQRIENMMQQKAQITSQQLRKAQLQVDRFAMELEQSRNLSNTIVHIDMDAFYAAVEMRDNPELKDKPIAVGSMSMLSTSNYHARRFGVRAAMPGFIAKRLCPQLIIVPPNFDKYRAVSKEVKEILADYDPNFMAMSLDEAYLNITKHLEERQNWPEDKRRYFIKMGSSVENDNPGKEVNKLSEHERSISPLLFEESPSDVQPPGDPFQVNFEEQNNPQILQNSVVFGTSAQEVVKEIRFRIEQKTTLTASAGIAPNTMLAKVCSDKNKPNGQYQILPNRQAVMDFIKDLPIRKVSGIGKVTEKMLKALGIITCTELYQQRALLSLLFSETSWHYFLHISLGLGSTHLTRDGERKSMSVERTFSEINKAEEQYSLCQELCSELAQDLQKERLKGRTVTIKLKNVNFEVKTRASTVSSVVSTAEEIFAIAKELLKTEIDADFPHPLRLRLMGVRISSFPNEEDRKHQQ
The assay is described as follows: Fluorescence-based (TAMRA/BHQ strand displacement) DNA polymerase activity assay. The conditions noted are these: for activity at 40 µM: read-out: % Activity Mean (hpol κ activity).

`Cc1c(/C=N/NC(=N)N)c2ccccc2n1C(=O)c1cccc2ccccc12` [IAG-1]: the IC50 (commonly the concentration that gives 50% inhibition) came out at 84.6 µM and the activity at 40 µM is 105%. For `COc1ccc2c(c1)c(/C=N/NC(=N)N)cn2C(=O)c1cccc2ccccc12` [IAG-2] the same measures were 68.6 µM and 104%. For `N=C(N)N/N=C/c1cn(Cc2ccc3ccccc3c2)c2ccccc12` [IAG-4] the same measures were 48.3 µM and 95%. Taken in the same sequence, the figures for `COc1ccc2c(c1)c(/C=N/NC(=N)N)cn2Cc1ccc2ccccc2c1` [IAG-5] were 43.7 µM and 94%. In the case of `N=C(N)N/N=C/c1cn(Cc2cccc3ccccc23)c2ccc(Cl)cc12` [IAG-7], the IC50 came out at 24.2 µM and the activity at 40 µM worked out at 64%.

`N=C(N)N/N=C/c1cn(Cc2cccc3ccccc23)c2ccc(Br)cc12` [IAG-8]: the half-maximal inhibitory concentration (IC50) lay in the range of 7.2 to 24.2 µM and the activity at 40 µM is 57%. For the compound `N=C(N)N/N=C/c1cn(C(=O)c2ccc3ccccc3c2)c2ccc(Cl)cc12` [IAG-9], the IC50 was determined as 18.8 µM and the activity at 40 µM is 30%. Take `O=C1NC(=S)NC(=O)C1=Cc1cn(Cc2ccc3ccccc3c2)c2ccccc12` [IBA-1]: the activity at 40 µM is 116%. As to `COc1ccc2c(c1)c(C=C1C(=O)N(C)C(=O)N(C)C1=O)c(C)n2Cc1cccc2ccccc12` [IBA-2], the activity at 40 µM turned out to be 114%.

Take `Cc1c(C=C2C(=O)N(C)C(=O)N(C)C2=O)c2cc(Cl)ccc2n1Cc1cccc2ccccc12` [IBA-3]: the activity at 40 µM stood at 111%. On the same count and under the same terms, in the case of `COc1ccc(Cn2cc(C=C3C(=O)NC(=O)NC3=O)c3cccnc32)cc1` [IBA-4] it was 110%. `O=C1NC(=S)NC(=O)C1=Cc1cn(Cc2cccc3ccccc23)c2ncc(Cl)cc12` [IBA-5]: the activity at 40 µM was 109%. With `O=C1NC(=S)NC(=O)C1=Cc1cn(Cc2cccc3ccccc23)c2ccc(Cl)cc12` [IBA-6], the activity at 40 µM is 108%. On the same count and under the same terms, in the case of `Cc1c(C=C2C(=O)NC(=O)NC2=O)c2ccccc2n1C(=O)c1cccc2ccccc12` [IBA-7] it was 107%; in that of `O=C1NC(=O)C(=Cc2cn(Cc3cccc4ccccc34)c3ncc(Cl)cc23)C(=O)N1` [IBA-8], 103%. Still for that read-out and setting: then `O=C1NC(=O)C(=Cc2cn(Cc3cccc(C(F)(F)F)c3)c3ncccc23)C(=O)N1` [IBA-9], with 103%; and `N#Cc1ccc(Cn2cc(C=C3C(=O)NC(=O)NC3=O)c3ccccc32)cc1` [IBA-10], with 102%. Same read-out and setting: then `Cc1c(C=C2C(=O)NC(=S)NC2=O)c2cc(Cl)ccc2n1Cc1cccc2ccccc12` [IBA-11], with 99.1%; and `Cc1c(C=C2C(=O)NC(=O)NC2=O)c2cc(Cl)ccc2n1Cc1cccc2ccccc12` [IBA-12], with 96.6%. For the compound `O=C1NC(=S)NC(=O)C1=Cc1cn(Cc2cccc(C(F)(F)F)c2)c2ncccc12` [IBA-13], the activity at 40 µM amounted to 96.6%.

As to `Cc1c(C=C2C(=O)NC(=O)NC2=O)c2ccccc2n1C(=O)c1ccc2ccccc2c1` [IBA-14], the activity at 40 µM came out at 95.7%.

On to `COc1ccc(Cn2cc(C=C3C(=O)NC(=S)NC3=O)c3cccnc32)cc1` [IBA-15], for which the activity at 40 µM was 95.1%.

On to `N#Cc1ccc(Cn2cc(C=C3C(=O)NC(=S)NC3=O)c3cccnc32)cc1` [IBA-16], for which the activity at 40 µM was 94.5%. On the same count and under the same terms, in the case of `COc1ccc2c(c1)c(C=C1C(=O)NC(=S)NC1=O)cn2C(=O)c1cccc2ccccc12` [IBA-17] it was 93.8%; in that of `Cc1c(C=C2C(=O)NC(=S)NC2=O)c2ccccc2n1C(=O)c1ccc2ccccc2c1` [IBA-18], 93.5%. As to `Cc1c(C=C2C(=O)NC(=O)NC2=O)c2ccccc2n1Cc1ccc(Br)cc1` [IBA-19], the activity at 40 µM is 93.3%. Same read-out and setting: then `COc1ccc2c(c1)c(C=C1C(=O)NC(=S)NC1=O)cn2C(=O)c1ccc2ccccc2c1` [IBA-20], with 92.9%; and `O=C1NC(=O)C(=Cc2cn(Cc3ccc4ccccc4c3)c3ncc(Cl)cc23)C(=O)N1` [IBA-21], with 92.2%.
